In patent publication US8741886B2, “Baclofen and acamprosate based therapy of neurological disorders” (Pharnext, priority 2011, dated 2014):

Tested on: Human brain microvascular endothelial cerebral cells (HBMEC)
Test: Toxicity of human Aβ1-42 peptide on HBMEC: total length of capillary network
Type: cell-based
Conditions: Aβ1-42 2.5 μM; single drugs at the concentrations used in the combination
Description: Human brain microvascular endothelial cell cultures were used to study the protection afforded by candidate compound(s) on Aβ1-42 toxicity.
Human brain microvascular endothelial cerebral cells (HBMEC, ScienCell Ref: 1000, frozen at passage 10) were rapidly thawed in a waterbath at +37° C. The supernatant was immediately put in 9 ml Dulbecco's modified Eagle's medium (DMEM; Pan Biotech ref: P04-03600) containing 10% of foetal calf serum (FCS; GIBCO ref 10270-106). […]
• Negative Control: medium alone+0.1% DMSO • Intoxication: amyloid-β1-42 (2.5 μM) for 18 h • Positive control: VEGF-165 (10 nM) (1 reference compound/culture) 1 hr before the Aβ1-42 (2.5 μM) addition for a 18 h incubation time. • Test compounds: Test compound(s) 1 hr before the Aβ1-42 (2.5 μM) addition for a 18 h incubation time. Capillary Network Quantification
Per well, 2 pictures with 4× lens were taken using InCell Analyzer™ 1000 (GE Healthcare) in light transmission. […] The total length of capillary network was assessed.
Data were expressed in percentage of control conditions (no intoxication, no amyloid=100%) in order to express the amyloid injury. All values were expressed as mean+/−SEM (s.e.mean) of the 3 cultures (n=6 wells per condition). […]

Structure (SMILES)	effect on Aβ1-42 intoxication, total length of capillary network (in words)
CC(=O)NCCCS(=O)(=O)O [Acamprosate]	no significant effect
NCC(CC(=O)O)c1ccc(Cl)cc1 (centres unmarked) [Baclofen]	no significant effect
